Data on one compound can be found in patent publication US7968128B2, “Plant extract compositions for affecting sleep” (VIVA Pharmaceutical Inc., priority 2008, dated 2011).

Common to all, as to type: in vivo, Swiss mice
The subject of data set [1] is mice. Nature of the data set: Sodium barbital induced sleep time measurement. As for the experimental part: (§1) Male and female Swiss mice having weights between about 18 to 22 g were used in the Examples provided below. Mice were housed in groups of 10 mice in a breeding room having a controlled temperature of about 22±2° C. Each group had free access to standard diet pellets and tap water.
(§2) Each of the extract combinations “BS” and “BY” produced in Example 1, was prepared for oral administration (PO) by ultrasonically dispersing each extract in distilled water containing about 0.5% Tween-80. Diazepam was also prepared for administration by ultrasonically dispersing the Diazepam in distilled water containing about 0.5% Tween-80.
(§3) Each of the BY, BS, and Diazepam compositions was administered orally to separate groups of mice at a dosage of 10 mL/kg body weight.
(§4) Dosages of the BS, BY, Diazepam compositions, and the sterile distilled water were administered orally to groups of mice, wherein each group comprised at least 10 mice.
Mice were administered 90 mg/kg sodium barbital via intraperitoneal injection (ip). Mice were then positioned on their back. The time that elapsed between administration of the sodium barbital and when each animal lost their righting reflex represented the time period between latency to the onset of sleep. The BS, BY, Diazepam, and the control treatments were administered to separate groups of mice. Each group of mice received their treatment about 7 days prior to the administration of the sodium barbital. The duration of sleeping time was calculated as the time interval between the loss of righting reflex to the time of recovery of this reflex. In studying the effects of the BS and BY extracts, the comparison of the durations of sleeping time between mice receiving the BS, BY, Diazepam treatments and the control treatments, was used as the main criterion of measurement.

For data set [2], the system named is mice. Nature of the data set: Locomotor activity measurements (square arena). The following applies: for Locomotor activity count: dose 1 mg/kg oral, mean ± SE, n = 10. As for the experimental part: as §1, §2, §3, §4
The effects of the BS treatments and the BY treatments on inhibition of central nervous system were evaluated by measurements of the locomotor activities of mice.
Each mouse was placed in the center of a square arena having dimensions of approximately 60 cm×60 cm×35 cm. […] The arena was illuminated using red 25 W bulbs on the ceiling. The total number of squares each mouse entered in a 5 minute period was recorded by an overhead video camera. The camera was linked to a monitor and video recorder in an adjacent laboratory.
The locomotor activity of the mice were recorded both before and 30-minutes, 60-minutes, 120-minutes, and 180-minutes after administration of one of BS, BY, Diazepam, and the control.
All locomotor activity recordings were carried out with the observer unaware of the treatment that was administered to each of the mice.

For data set [3], the system named is mice. Nature of the data set: Traction test. As for the experimental part:
as §1
Each of the extract combinations “BS” and “BY” produced in Example 1, was prepared for oral administration (PO) by ultrasonically dispersing each extract in distilled water containing about 0.5% Tween-80. Diazepam was also prepared for administration by ultrasonically dispersing the Diazepam in distilled water containing about 0.5% Tween-80. […]
The effects of the BS and BY compositions on inhibition of muscle coordination systems were evaluated using a traction test.
A wire having a diameter of about 1.6 mm and length of about 30 cm was stretched and secured horizontally at a height of about 30 cm above a surface. […] The duration of time each mouse clung to the wire was recorded up to a maximum of 60 seconds.
The test was performed about 60 minutes after the administration of one of the BS, BY, Diazepam, and the control compositions. […] The durations of clinging time measured for each group of mice were calculated using the mean value of triplicates for each mouse. If the duration of clinging time was greater than 60 seconds, the mouse was released from the wire, and the clinging time was recorded 60 seconds.

For data set [4], the system named is mice. The experiment in a line: Inclined plane test. Here is the method:
as §1, §2
Each of the BY, BS, and Diazepam compositions was administered orally to separate groups of mice at a dosage of 10 mL/kg body weight. […]
Effects of the BS and BY compositions on the motor functions of mice were evaluated using an inclined plane test.
The inclined plane consisted of two rectangular steel boards connected at one end by a hinge. […] The maximum inclination of the plane at which a mouse could maintain itself in position for at least 5 seconds was recorded, and interpreted to represent the mouse's functional ability. The test was performed in triplicate for each mouse and the mean value was recorded as the maximum inclination.

The mark [5] stands for this setting: dose 1.0 mg/kg oral, sodium barbital 90 mg/kg ip, mean ± SE, n = 10.

Take `CN1C(=O)CN=C(c2ccccc2)c2cc(Cl)ccc21` [Diazepam]: in the data set with mice [1] (dosage 1.0 mg/kg), the “sodium barbital-induced sleeping time compared to the controls (in words)” value is “significantly prolonged”. Besides, the “Duration of Sleep” value with mice [1] (setting [5]) is 72.8 ± 7.5 min. Moreover, in the data set with mice [1] (setting [5]), the Sleep latency was 169.1 ± 12.4 s. Also, in the data set with mice [2] (all doses and times of Table 2), the “effects on the locomotor activity of the mice (in words)” value was “None of the BS, BY and Diazepam compositions had any significant effects”. In addition, the Locomotor activity count was 80.4 ± 6.7 with mice [2] (0 minutes (before administration), squares entered in 5 min); 68.9 ± 4.9 in the data set on mice [2] (30 minutes after administration); 56.7 ± 3.8 in the data set with mice [2] (60 minutes after administration); 52.6 ± 3.6 in the data set on mice [2] (120 minutes after administration); 47.6 ± 3.4 in the data set with mice [2] (180 minutes after administration). In the data set with mice [3] (dose 9 mg/kg oral, about 60 minutes after administration, maximum 60 seconds, mean ± SE, n = 10), the Duration of clinging worked out at 19.6 ± 4.9 s. In the data set on mice [3] (doses of Table 3), the “durations of clinging time compared to control (in words)” value is listed as “markedly reduced”. The Maximum inclination with mice [4] (dose 9 mg/kg oral, position held at least 5 seconds, mean ± SE, n = 10) was determined as 51.5 ± 0.9 degrees. The “degrees of inclination compared to control (in words)” value in the data set on mice [4] (doses of Table 4) is given as “markedly reduced”.
